Assay results reported in patent publication US12116358B2, “Substituted indoles and methods of use thereof” (EPIZYME, INC., priority 2018, dated 2024).
Read-outs that look alike come from different tables or passages of the source.

Assays:
KMS-34 cells = assay: 14 day KMS-34 long term proliferation (LTP) assay; conditions: read-out: LTP Day 14 Abs IC50
Procedure: 14 Day KMS-34 Long Term Proliferation (LTP) Assay
Incubate plates for 96 hrs.
The final concentration is 1 μm.
To calculate growth for days 4, 7, 11, and 14:
1. Calculate the split factor for day 4 to 7, day 7 to 11, and day 11-14 The split factor is the viable cells/mL on Day X (either 4, 7, or 11) divided by the density the cells are being split back to.
2. For growth of cells from day 4 to 7, multiply the day 7 viable cells/mL density by the split factor from day 4.
4. For growth of cells from Day 11 to 14, multiply the Day 14 viable cells/mL density by the days 4, 7, and 11 split factors.
5. Plot growth on semi-log chart (viable cells/mL on Y axis, in log, and days on X axis).
From 5 mM to 0.25 μm. […] Mix well by pipetting up and down.

H3K36me3 in A549 cells = assay: In-Cell Western (ICW) assay of SETD2 inhibitors (A549 assay); format: cell-based, human; conditions: A549 cells, read-out: SETD2 A549
Procedure, shortened: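 A549 cells seeded at 4,000/well onto compound and incubated 3 days at 37° C. Methanol-fixed cells stained overnight at 4° C with anti-H3K36me3 (1:1000), then IRDye 800CW secondary with DRAQ5 DNA counterstain. Plates read by Licor imaging at 700 and 800 channels.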

SETD2(1434-1711) = target: T1, SETD2(1434-1711) (Homo sapiens, UniProt Q9BYW2); assay: SETD2 (1434-1711) assay; format: biochemical; conditions: read-out: SETD2 (1434-1711)
T1 construct: SETD2 (1434-1711) Assay; catalogue N/A
T1 sequence (Q9BYW2 1434-1711): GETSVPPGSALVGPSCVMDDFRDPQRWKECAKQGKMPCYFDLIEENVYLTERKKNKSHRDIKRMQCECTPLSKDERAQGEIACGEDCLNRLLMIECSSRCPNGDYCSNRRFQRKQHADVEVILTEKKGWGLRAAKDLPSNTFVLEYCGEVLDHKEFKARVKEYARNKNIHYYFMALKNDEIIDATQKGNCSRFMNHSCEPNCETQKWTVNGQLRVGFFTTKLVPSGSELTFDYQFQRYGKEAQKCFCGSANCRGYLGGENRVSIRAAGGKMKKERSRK

Row | IC50 (H3K36me3 in A549 cells) | IC50 (SETD2(1434-1711)) | IC50 (H3K36me3 in A549 cells; Homo sapiens) | Structure (SMILES) | IC50 (KMS-34 cells; KMS-34 cells, day 14) | IC50 (KMS-34 cells; Homo sapiens, KMS-34, 336 h)
1 | 40 nM | – | – | CC(=O)N1CCN(c2cc(F)cc(NC(=O)c3cc4c(F)ccc(C)c4[nH]3)c2)CC1 [compound 7] | 60 nM | –
2 | 40 nM | 6 nM | – | Cc1ccc(F)c2cc(C(=O)Nc3cc(F)cc(N4CCC(N5CCOCC5)C4)c3)[nH]c12 (stereo not drawn) [compound 11] | 90 nM | –
3 | 60 nM | 10 nM | – | Cc1ccc(F)c2cc(C(=O)Nc3cc(Cl)cc(N4CCC(N5CCOCC5)C4)c3)[nH]c12 (stereo not drawn) [compound 22] | 110 nM | –
4 | 80 nM | 10 nM | – | CC(=O)N1CCN(c2cc(Cl)cc(NC(=O)c3cc4c(F)ccc(C)c4[nH]3)c2)CC1 [compound 31] | 130 nM | –
5 | 80 nM | 20 nM | – | CC(=O)N1CCN(c2cccc(NC(=O)c3cc4c(F)ccc(C)c4[nH]3)c2)CC1C (stereo not drawn) [compound 32] | 110 nM | –
6 | 80 nM | – | – | CC(=O)N1CCN(c2cccc(NC(=O)c3cc4c(F)ccc(C)c4[nH]3)c2)CC1 [compound 34] | 250 nM | –
7 | 100 nM | 60 nM | – | Cc1ccc(F)c2cc(C(=O)Nc3cccc(-c4cncnc4)c3)[nH]c12 [compound 64] | 380 nM | –
8 | 100 nM | 20 nM | – | Cc1nnc(-c2cccc(NC(=O)c3cc4c(F)ccc(C)c4[nH]3)c2)s1 [compound 65] | 280 nM | –
9 | – | 30 nM | 200 nM | Cc1ccc(F)c2cc(C(=O)Nc3cccc(N4CCOC4=O)c3)[nH]c12 [compound 66] | – | 420 nM
10 | 200 nM | 30 nM | – | Cc1ccc(F)c2cc(C(=O)Nc3cccc(N4CCC(N5CCOCC5)CC4)c3)[nH]c12 [compound 76] | 360 nM | –
11 | 200 nM | 50 nM | – | Cc1ccc(F)c2cc(C(=O)Nc3cccc(N4CCOC(CO)C4)c3)[nH]c12 (stereo not drawn) [compound 115] | 260 nM | –
12 | 300 nM | 60 nM | – | Cc1ccc(F)c2cc(C(=O)Nc3cccc4cnccc34)[nH]c12 [compound 134] | 800 nM | –
13 | – | 80 nM | 300 nM | Cc1ccc(F)c2cc(C(=O)Nc3cccc(-c4cnn(C)c4)c3)[nH]c12 [compound 151] | – | 580 nM
14 | – | 100 nM | 500 nM | Cc1ccc(F)c2cc(C(=O)Nc3cccc(-n4ccnc4)c3)[nH]c12 [compound 221] | – | 930 nM
15 | > 2000 nM | – | – | CC(=O)N1CCN(C2CCCC(NC(=O)c3cc4c(F)ccc(C)c4[nH]3)C2)CC1 (stereo not drawn) [compound 359] | 7800 nM | –
16 | > 2000 nM | – | – | CC(=O)N1CCN(C2CCCC(NC(=O)c3cc4c(F)ccc(C)c4[nH]3)C2)CC1 (stereo not drawn) [compound 372] | 10000 nM | –
17 | > 2000 nM | – | – | CC(=O)N1CCN(C2CCCC(NC(=O)c3cc4c(F)ccc(C)c4[nH]3)C2)CC1 (stereo not drawn) [compound 373] | 10000 nM | –
18 | – | 22400 nM | 15400 nM | CC(=O)N1CCN(c2cccc(NC(=O)c3cc4cccc(C5CC5)c4[nH]3)c2)CC1 [compound 509] | – | 2600 nM
19 | > 2000 nM | 1600 nM | – | CC(=O)N1C(C)CN(C2CCCC(NC(=O)c3cc4c(F)ccc(C)c4[nH]3)C2)CC1C (stereo not drawn) [compound 1163] | – | –

Row | IC50 (H3K36me3 in A549 cells) | IC50 (SETD2(1434-1711)) | IC50 (H3K36me3 in A549 cells; Homo sapiens) | Structure (SMILES) | IC50 (KMS-34 cells; KMS-34 cells, day 14) | IC50 (KMS-34 cells; Homo sapiens, KMS-34, 336 h)
20 | > 2000 nM | 2100 nM | – | CCC(=O)N1CCN(C2CCCC(NC(=O)c3cc4c(F)ccc(C)c4[nH]3)C2)CC1C(F)(F)F (stereo not drawn) [compound 1164] | – | –
21 | > 2000 nM | 3500 nM | – | Cc1ccc(F)c2cc(C(=O)NC3CCCC(N4CCn5c(nccc5=O)C4)C3)[nH]c12 (stereo not drawn) [compound 1165] | – | –
22 | > 2000 nM | 1000 nM | – | Cc1ccc(F)c2cc(C(=O)NC3CCCC(N4CCn5c(c[nH]c5=O)C4)C3)[nH]c12 (stereo not drawn) [compound 1166] | – | –
23 | 60 nM | 20 nM | – | CCC(=O)N1CCN(C2CCCC(NC(=O)c3cc4c(F)ccc(C)c4[nH]3)C2)CC1C(F)(F)F (stereo not drawn) [compound 1167] | – | –
24 | > 2000 nM | 1300 nM | – | CCC(=O)N1CCN(C2CCCC(NC(=O)c3cc4c(F)ccc(C)c4[nH]3)C2)CC1C(F)(F)F (stereo not drawn) [compound 1168] | – | –
25 | > 2000 nM | 900 nM | – | CNC(=C[N+](=O)[O-])N1CCN(C2CCCC(NC(=O)c3cc4c(F)ccc(C)c4[nH]3)C2)CC1 (stereo not drawn) [compound 1169] | – | –
26 | > 2000 nM | 1800 nM | – | Cc1ccc(F)c2cc(C(=O)NC3CCCC(N4CCN(C(=O)NC5CCOCC5)CC4)C3)[nH]c12 (stereo not drawn) [compound 1170] | – | –
27 | 60 nM | 30 nM | – | Cc1ccc(F)c2cc(C(=O)NC3CCCC(N4CCN(C(=O)C(C)C)C(C(F)(F)F)C4)C3)[nH]c12 (stereo not drawn) [compound 1171] | – | –
28 | > 2000 nM | 3100 nM | – | Cc1ccc(F)c2cc(C(=O)NC3CCCC(N4CCN(C(=O)C(C)C)C(C(F)(F)F)C4)C3)[nH]c12 (stereo not drawn) [compound 1172] | – | –
29 | 30 nM | 40 nM | – | Cc1ccc(F)c2cc(C(=O)NC3CCCC(N4CCN(C(=O)CO)C(C(F)(F)F)C4)C3)[nH]c12 (stereo not drawn) [compound 1173] | – | –
30 | > 2000 nM | 4800 nM | – | Cc1ccc(F)c2cc(C(=O)NC3CCCC(N4CCN(C(=O)CO)C(C(F)(F)F)C4)C3)[nH]c12 (stereo not drawn) [compound 1174] | – | –
31 | > 2000 nM | 8400 nM | – | Cc1ccc(F)c2cc(C(=O)NC3CCCC(N4CCN(C(=O)C(C)C)C(C(F)(F)F)C4)C3)[nH]c12 (stereo not drawn) [compound 1175] | – | –
32 | > 2000 nM | 2900 nM | – | Cc1ccc(F)c2cc(C(=O)NC3CCCC(N4CCN(C(=O)CO)C(C(F)(F)F)C4)C3)[nH]c12 (stereo not drawn) [compound 1176] | – | –
33 | 300 nM | 30 nM | – | CC(=O)N1CC2CN(C3CCCC(NC(=O)c4cc5c(F)ccc(C)c5[nH]4)C3)CC2C1 (stereo not drawn) [compound 1177] | – | –
34 | > 2000 nM | 3900 nM | – | CC(=O)N1CC2CN(C3CCCC(NC(=O)c4cc5c(F)ccc(C)c5[nH]4)C3)CC2C1 (stereo not drawn) [compound 1178] | – | –
35 | 800 nM | 500 nM | – | Cc1ccc(F)c2cc(C(=O)NC3CCCC(N4CCn5c(cn(C)c5=O)C4)C3)[nH]c12 (stereo not drawn) [compound 1179] | – | –
36 | – | 200 nM | 1800 nM | Cc1ccc(F)c2cc(C(=O)N[C@H]3CCC[C@@H](C4=NNC(=O)CN4)C3)[nH]c12 [compound 1188] | – | –
37 | – | 600 nM | > 2000 nM | CC(=O)N1[C@H](C)CN([C@@H]2CCC[C@@H](NC(=O)c3cc4c(F)ccc(C)c4[nH]3)C2)C[C@H]1C [compound 1193] | – | –
